{
  "source": "patent US12492195B2",
  "about": "“Preparation method for and crystal form of 3-aryloxy-3-five-membered heteroaryl-propylamine compound” (Zhangzhou Pien Tze Huang Pharmaceutical Co., Ltd., priority 2020, dated 2025)",
  "assay": "Pharmacokinetic test in rat",
  "type": "in vivo",
  "conditions": "PO 10 mg/kg",
  "procedure": "A certain amount of sample was weighed and dissolved in deionized water to prepare 1 mg/mL of solution. Male SD rats were used as test animals. The dose of single intravenous (IV) injection was 2 mg/kg, and the dose of oral (PO) administration was 10 mg/kg. Each group had three rats. The rats in oral group were fasted for 10-14 hours before administration, and were fed 4 hours after administration. Blood collection time points of animals were before administration, and 5 min, 15 min, 30 min, 1 h, 2 h, 4 h, 6 h, 8 h, and 24 h after administration for intravenous administration; before administration, and 15 min, 30 min, 1 h, 2 h, 4 h, 6 h, 8 h and 24 h after administration for oral administration. About 0.25 mL of blood was collected via the jugular vein from each animal, and heparin sodium was used for anticoagulation. After collecting the blood samples, the blood samples were placed on ice and centrifuged to separate the plasma (centrifugation conditions: 8000 rpm, 6 min, 4° C.). The collected plasma was stored at −80° C. before analysis. 50 μL of plasma sample was taken into 1.5 mL centrifuge tube, 250 μL of internal standard solution was added, and the same volume of methanol rather than internal standard solution was added in the blank group. […]",
  "data": [
    {"smiles": "CNCC[C@H](Oc1cccc2ccccc12)c1cccs1", "note": "[Duloxetine (S configuration), Duloxetine, reference compound]", "values": [
      {"measurement": "Tmax", "value": 50, "unit": "min"}
    ]}
  ]
}
